# Measured values reported in patent EP4678634A1, “ANDROGEN RECEPTOR MODULATORS AND USES THEREOF” (Haihe Biopharma Co., Ltd., priority 2023, dated 2024).
# Target: T1, Androgen receptor (AR) (Homo sapiens, UniProt P10275)
# T1 construct: expressed in transfected cells; host or cells: HEK293T (AR+ARE/Luc)
# T1 sequence (P10275 1-920): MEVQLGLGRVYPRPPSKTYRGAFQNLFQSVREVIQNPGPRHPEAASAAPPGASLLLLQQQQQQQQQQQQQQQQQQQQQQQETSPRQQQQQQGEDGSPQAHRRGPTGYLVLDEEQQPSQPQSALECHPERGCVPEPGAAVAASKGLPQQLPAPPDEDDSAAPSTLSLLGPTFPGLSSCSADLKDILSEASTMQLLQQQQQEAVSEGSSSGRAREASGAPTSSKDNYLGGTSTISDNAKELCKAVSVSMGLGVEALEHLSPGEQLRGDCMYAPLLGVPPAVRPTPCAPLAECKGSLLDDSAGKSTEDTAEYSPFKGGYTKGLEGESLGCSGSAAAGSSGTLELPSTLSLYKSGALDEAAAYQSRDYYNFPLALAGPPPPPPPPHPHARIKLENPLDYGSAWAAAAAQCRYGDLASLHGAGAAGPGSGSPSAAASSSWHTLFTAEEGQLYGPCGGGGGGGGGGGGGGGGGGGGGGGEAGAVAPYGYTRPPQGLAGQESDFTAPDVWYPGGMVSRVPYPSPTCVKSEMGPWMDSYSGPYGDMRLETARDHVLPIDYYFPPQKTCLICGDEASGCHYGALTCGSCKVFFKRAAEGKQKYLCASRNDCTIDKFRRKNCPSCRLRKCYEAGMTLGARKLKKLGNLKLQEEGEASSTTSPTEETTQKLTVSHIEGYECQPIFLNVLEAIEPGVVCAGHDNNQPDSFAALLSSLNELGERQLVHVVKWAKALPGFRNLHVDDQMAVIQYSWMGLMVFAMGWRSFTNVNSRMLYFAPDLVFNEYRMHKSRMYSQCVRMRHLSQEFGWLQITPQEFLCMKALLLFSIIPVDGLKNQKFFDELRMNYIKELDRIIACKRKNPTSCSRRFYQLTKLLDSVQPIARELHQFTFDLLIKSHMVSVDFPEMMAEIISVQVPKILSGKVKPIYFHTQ
# Assay: Androgen receptor (AR) reporter gene assay (luciferase)
# Type: cell-based
# Details: AR+ARE/Luc HEK293T cells, stimulated with 11-KDHT, 24h incubation, Bright-Lite luminescence; read-out: HEK293 Luc IC50
# Method: Androgen receptor (AR) reporter gene assay
# Experimental reagents: 11-Ketodihydrotestosterone (11-KDHT) was purchased from MCE (cat.HY-135794); Enzalutamide (MDV3100) was purchased from Selleck (cat.S1250); Bright-Lite Luciferase Assay kit was purchased from Vazyme (cat.DD1204-01);
# • 1. dissolve the described compounds in 100% DMSO at a final concentration of 10 mM. 100 nL each of 400X compound to be tested and 400X 11-KDHT (40 nM) were added to a 384-well assay plate with Echo, followed by 20 µL of complete medium, and centrifuged at 1000 rpm for 1 min, and oscillated for 20-30 min at room temperature. • 2. 20 µL of AR+ARE/Luc HEK293T cells (10,000 cells/well) were inoculated into the assay plate containing the compounds and 11-KDHT, and centrifuged at 1000 rpm for 1 min. The assay plate was incubated in a 37 °C CO2 incubator for 24h. • 3. 40 µL of Bright-Lite assay reagent was transferred to each well of the assay plate, centrifuged at 1000 rpm for 1 min, and shaken for 2 min at room temperature protected from light. Luminescence values (RLU) were measured using Envision. Based on the results, the IC50 values of the compounds described were calculated. Table 1 HEK293-Luc% inhibition IC50 of representative compounds
row,IC50 [nM],SMILES
1,1 to 500,"N#Cc1cc2c(c(Cl)c1OCCCl)CCCC2Nc1ccc2cn[nH]c2c1 (stereo not drawn) [HANT-229, 8-((1H-indazol-6-yl)amino)-4-chloro-3-(2-chloroethoxy)-5,6,7,8-tetrahydronaphthalene-2-carb onitrile]"
2,> 2000,"N#Cc1cc2c(c(Cl)c1OCCCl)CCCC2c1cnc2[nH]ncc2c1 (stereo not drawn) [HANT-150B, 4-chloro-3-(2-chloroethoxy)-8-(1H-pyrazolo[3,4-b]pyridin-5-yl)-5,6,7,8-tetrahydronaphthalene-2-carbonitrile]"
3,500 to 1000,"N#Cc1cc2c(c(Cl)c1OCCCl)CCCC2c1ccc2[nH]ncc2n1 (stereo not drawn) [HANT-148, 4-chloro-3-(2-chloroethoxy)-8-(1H-pyrazolo[4,3-b]pyridin-5-yl)-5,6,7,8-tetrahydronaphthalene-2-carbonitrile]"
4,1 to 500,CCCOc1c(C#N)cc2c(c1Cl)CCCC2Nc1ccc(OC)nc1 (stereo not drawn) [HANT-121]
5,500 to 1000,N#Cc1cc2c(c(Cl)c1OCCCl)CCCC2NC(=O)C1CCCCC1 (stereo not drawn) [HANT-209]
6,1000 to 2000,"Oc1ccc(C2CCc3cc(OCCCl)c(Cl)cc32)cc1 (stereo not drawn) [HANT-107, 4-(6-chloro-5-(2-chloroethoxy)-2,3-dihydro-1H-inden-1-yl)phenol]"
7,500 to 1000,N#Cc1cc2c(c(Cl)c1OCCCl)CCCC2NC(=O)c1ccncc1 (stereo not drawn) [HANT-214]
8,1 to 500,"N#Cc1cc2c(c(Cl)c1OCCCl)CCCC2Nc1ccc2[nH]ncc2n1 (stereo not drawn) [HANT-191, 8-((1H-pyrazolo[4,3-b]pyridin-5-yl)amino)-4-chloro-3-(2-chloroethoxy)-5,6,7,8-tetrahydronaph thalene-2-carbonitrile]"
9,1 to 500,N#Cc1cc2c(c(Cl)c1OCCCl)CCCC2Nc1ccccc1 (stereo not drawn) [HANT-226]
10,1 to 500,N#Cc1cc2c(c(Cl)c1OCCCl)CCCC2NC(=O)c1ccc(Cl)cc1 (stereo not drawn) [HANT-232]
11,1 to 500,"CN1CCc2c(cc(Cl)c(OCCCl)c2Cl)C1c1ccc2[nH]ncc2c1 (racemic) [HANT-146, 5,7-dichloro-6-(2-chloroethoxy)-1-(1H-indazol-5-yl)-2-methyl-1,2,3,4-tetrahydroisoquinoline]"
12,500 to 1000,"N#Cc1cc2c(c(Cl)c1OCCCl)CCCC2Nc1ccc(N)nc1 (stereo not drawn) [HANT-240, 8-((6-aminopyridin-3-yl)amino)-4-chloro-3-(2-chloroethoxy)-5,6,7,8-tetrahydronaphthalene-2-c arbonitrile]"
13,1000 to 2000,N#Cc1cc2c(c(Cl)c1OCCC(F)(F)F)CCCC2c1cnc2[nH]ncc2c1 (stereo not drawn) [HANT-171]
14,500 to 1000,NCc1cc2c(c(Cl)c1OCCCl)CCCC2c1cnc2[nH]ncc2c1 (stereo not drawn) [HANT-184]
15,500 to 1000,COc1ccc(C(=O)NC2CCCc3c2cc(C#N)c(OCCCl)c3Cl)cc1 (stereo not drawn) [HANT-235]
16,500 to 1000,"ClCCOc1c(Cl)cc2c(c1Cl)CCCN2c1cnc2[nH]ncc2c1 [HANT-166, 5,7-dichloro-6-(2-chloroethoxy)-1-(1H-pyrazolo[3,4-b]pyridin-5-yl)-1,2,3,4-tetrahydroquinoline]"
17,500 to 1000,"N#Cc1cc2c(c(Cl)c1OCCCl)CCCC2c1cnc2[nH]c(=O)oc2c1 (stereo not drawn) [HANT-207, 4-chloro-3-(2-chloroethoxy)-8-(2-oxo-2,3-dihydrooxazolo[4,5-b]pyridin-6-yl)-5,6,7,8-tetrahydr onaphthalene-2-carbonitrile]"
18,1 to 500,"N#Cc1cc2c(c(Cl)c1OCCCl)CCCC2c1cnc2[nH]ncc2c1 (stereo not drawn) [HANT-150A, 4-chloro-3-(2-chloroethoxy)-8-(1H-pyrazolo[3,4-b]pyridin-5-yl)-5,6,7,8-tetrahydronaphthalene-2-carbonitrile]"
19,1 to 500,N#Cc1cc2c(c(Cl)c1OCCCl)CCCC2Oc1cccnc1 (stereo not drawn) [HANT-267]
20,500 to 1000,N#Cc1cc2c(c(Cl)c1OCCCl)CCCC2NC(=O)c1cc[nH]n1 (stereo not drawn) [HANT-188]
21,1 to 500,ClCCOc1c(Cl)cc2c(c1Cl)CCCC2N1CCc2[nH]ncc2C1 (stereo not drawn) [HANT-125]
22,1000 to 2000,N#Cc1cc2c(c(Cl)c1OCCCl)CCCC2Nc1cc[nH]n1 (stereo not drawn) [HANT-175]
23,1 to 500,"CN1CCc2c(cc(Cl)c(OCCCl)c2Cl)C1c1ccc(O)cc1 (stereo not drawn) [HANT-115, 4-(5,7-dichloro-6-(2-chloroethoxy)-2-methyl-1,2,3,4-tetrahydroisoquinolin-1-yl)phenol]"
24,1 to 500,"CCOc1c(C#N)cc2c(c1Cl)CCCC2Nc1ccc2[nH]ncc2c1 (stereo not drawn) [HANT-269, 8-((1H-indazol-5-yl)amino)-4-chloro-3-ethoxy-5,6,7,8-tetrahydronaphthalene-2-carbonitrile]"
25,1 to 500,N#Cc1cc2c(c(Cl)c1OCCCl)CCCC2NC(=O)c1cn[nH]c1 (stereo not drawn) [HANT-187]
26,1 to 500,N#Cc1cc2c(c(Cl)c1OCCCl)CCCC2Nc1cc2cn[nH]c2cn1 (stereo not drawn) [HANT-224]
27,> 2000,"CNC(=O)c1n[nH]c2ccc(C3CCCc4c3cc(Cl)c(OCCCl)c4Cl)cc12 (stereo not drawn) [HANT-132, 5-(5,7-dichloro-6-(2-chloroethoxy)-1,2,3,4-tetrahydronaphthalen-1-yl)-N-methyl-1H-indazole-3-carboxamide]"
28,500 to 1000,OC1CCN(C2CCCc3c2cc(Cl)c(OCCCl)c3Cl)CC1 (stereo not drawn) [HANT-123]
29,1 to 500,N#Cc1cc2c(c(Cl)c1OCCCl)CCCC2Nc1ccc(OCCO)nc1 (stereo not drawn) [HANT-122]

row,SMILES,IC50 [nM]
1,CC(=O)Nc1ccc(C2CCCc3c2cc(C#N)c(OCCCl)c3Cl)cn1 (stereo not drawn) [HANT-205],1 to 500
2,N#Cc1cc2c(c(Cl)c1OCCCl)CCCC2c1ccc2oc(=O)[nH]c2c1 (stereo not drawn) [HANT-208],1 to 500
3,CN1Cc2ccc(C3CCCc4c3cc(C#N)c(OCCCl)c4Cl)cc2C1=O (stereo not drawn) [HANT-983],> 2000
4,N#Cc1cc2c(c(Cl)c1OCCCl)CCCC2c1ccc2n[nH]c(=O)n2c1 (stereo not drawn) [HANT-978],1 to 500
5,N#Cc1cc2c(c(Cl)c1OCCCl)CCCC2c1cncnc1 (stereo not drawn) [HANT-246],1 to 500
6,Oc1ccc(C2CCCc3c2cc(Cl)c(OCCCl)c3Cl)cn1 (stereo not drawn) [HANT-101],1000 to 2000
7,N#Cc1cc2c(c(Cl)c1OCCCl)CCCC2c1cc2cn[nH]c2cn1 (stereo not drawn) [HANT-149],1 to 500
8,Cn1ncc2cc(C3CCCc4c3cc(Cl)c(OCCCl)c4Cl)ccc21 (stereo not drawn) [HANT-131],> 2000
9,COc1ccc(C2CCCc3c2cc(C#N)c(OCCCl)c3Cl)cc1 (stereo not drawn) [HANT-334],1 to 500
10,N#Cc1cc2c(c(Cl)c1OCCCl)CCCC2NC1CCCOC1 (stereo not drawn) [HANT-264],> 2000
11,CN1C(=O)c2ccc(C3CCCc4c3cc(C#N)c(OCCCl)c4Cl)cc2C1=O (stereo not drawn) [HANT-982],1 to 500
12,O=C1Cc2cc(C3CCCc4c3cc(Cl)c(OCCCl)c4Cl)ccc2N1 (stereo not drawn) [HANT-135],1 to 500
13,ClCCOc1c(Cl)cc2c(c1Cl)CCCC2c1ccc2cn[nH]c2c1 (stereo not drawn) [HANT-134],1 to 500
14,"N#Cc1cc2c(c(Cl)c1OCCCl)CCCC2c1cccc2[nH]ncc12 (stereo not drawn) [HANT-193, 4-chloro-3-(2-chloroethoxy)-8-(1H-indazol-7-yl)-5,6,7,8-tetrahydronaphthalene-2-cyanide]",1 to 500
15,"N#Cc1cc2c(c(Cl)c1OCCCl)CCCC2c1ccc(O)cc1 (stereo not drawn) [HANT-105, 4-chloro-3-(2-chloroethoxy)-8-(4-hydroxyphenyl)-5,6,7,8-tetrahydronaphthalene-2-carbonitrile]",1 to 500
16,COc1cncc(NC2CCCc3c2cc(C#N)c(OCCCl)c3Cl)c1 (stereo not drawn) [HANT-266],1 to 500
17,N#Cc1cc2c(c(Cl)c1OCCCl)CCCC2Nc1cccnc1 (stereo not drawn) [HANT-227],1 to 500
18,COc1cc(O)ccc1C1CCCc2c1cc(Cl)c(OCCCl)c2Cl (stereo not drawn) [HANT-137],1000 to 2000
19,ClCCOc1c(Cl)cc2c(c1Cl)CCCC2N1CCc2cn[nH]c2C1 (stereo not drawn) [HANT-126],500 to 1000
20,N#Cc1cc2c(c(Cl)c1OCCCl)CCCC2c1cnc2[nH]c(=O)ccc2c1 (stereo not drawn) [HANT-202],1 to 500
21,ClCCOc1c(Cl)cc2c(c1Cl)CCCC2c1ccc2[nH]cnc2c1 (stereo not drawn) [HANT-112],500 to 1000
22,Cn1nc(C2CCCc3c2cc(C#N)c(OCCCl)c3Cl)c2ccccc21 (stereo not drawn) [HANT-949],1000 to 2000
